Source: patent US5314999A, “Derivatives of basic polyene macrolides and their preparation” (Laboratoires Mayoly-Spindler, priority 1989, dated 1994)
In brackets after ≈: the same amount, converted by molar mass. Like-named read-outs stand apart in the source and are kept apart here.

Key:
[1] = Solubility of the AmB derivatives; assay type: physicochemical; settings: 5% glucose solution, ambient temperature, up to saturation; read-out: solubility (soluble up to a concentration of)
Experimental: C.2. Solubility of the AmB derivatives according to the present invention
AmB or the derivatives obtained are dissolved at ambient temperature in a 5% glucose solution up to saturation.

Candida albicans = test: Growth inhibition in liquid medium (Sabouraud broth); assay type: cell-based; settings: Sabouraud broth, 28° C., 18 hours, read-out: IC 50 (growth-inhibiting concentration of 50%)
Experimental: (§1) A.1 : Study of the antibiotic efficiency of AmB derivatives in liquid medium against different yeasts
(§2) The antibiotic efficiency was tested by the growth inhibition method in liquid medium (Sabouraud broth) in the presence of different concentrations of the derivatives studied.
(§3) A yeast suspension was cultivated in a broth in such a manner that about 1×10^2 cell/ml were obtained.
(§4) The tubes containing the different concentrations of antifungal substance were inoculated with the same amount of yeast cells, and were then incubated at 28° C. for 18 hours with stirring. For each concentration of antifungal substance, two identical tubes were prepared.
(§5) The inhibition of fungal growth corresponding to the different concentrations was evaluated for each molecule by spectrophotometry at 620 nm and expressed in percent with respect to a reference solution without antifungal substance.

Cryptoccocus neoformans = test: as above; assay type: cell-based; settings: Sabouraud broth, 28° C., 18 hours, read-out: IC 50 (growth-inhibiting concentration of 50%)
Experimental: as §1, §2, §3, §4, §5

Pytirosporum orbiculare = test: as above; assay type: cell-based; settings: Sabouraud broth, 28° C., 18 hours; read-out: IC 50 (growth-inhibiting concentration of 50%)
Experimental: as §1, §2, §3, §4, §5

Saccharomyces cerevisiae = test: as above; assay type: cell-based; settings: Saccharomyces cerevisiae, 18 h, Sabouraud broth, 28° C., 18 hours; read-out: IC 50 (growth-inhibiting concentration of 50%)
Experimental: as §1, §2, §3, §4, §5

Aspergillus flavus = test: Diffusion method in agar-agar medium (Sabouraud agar-agar); assay type: cell-based; settings: Sabouraud agar-agar, disc diameter 1 cm, 0.1 ml
Experimental: (§6) A.2 : Study of the antibiotic efficiency of amphotericine B derivatives in agar-agar medium against Aspergillus
(§7) The antibiotic activity was tested by the diffusion method in agar-agar medium (Sabouraud agar-agar).
(§8) The efficiency of each molecule was determined by the size of the growth-inhibiting zone around a WHATMAN 3M paper disc impregnated with the antibiotic substance of a given concentration.
(§9) A suspension of Aspergillus spores in a broth was prepared, 0.2 ml of this suspension was used to inoculate at its surface an agar-agar medium which was solidified in such a manner that a homogeneous growth layer was obtained. After spreading, the WHATMAN 3M paper discs (diameter: 1 cm) were placed on the surface of the agar-agar, and then impregnated with 0.1 ml of the antibiotic substance at different concentrations.

Aspergillus fumigatus = test: as above; assay type: cell-based; settings: Sabouraud agar-agar, disc diameter 1 cm, 0.1 ml
Experimental: as §6, §7, §8, §9

red corpuscles [2] = test: Toxicity on red corpuscles (lysis), mice; assay type: cell-based; settings: 37° C., 1 hour 30, 90 min, 90 min, read-out: LD 50 (dose which leads to lysis in 50% of the erythrocytes)
Experimental: (§10) B.1: Study of the toxicity on red corpuscles
(§11) All the solutions of the AmB derivatives according to the invention were prepared immediately before use by diluting 4 mg of substance in 100 μl of 5% glucose solution, and then, after 15 minutes protected from light, 100 μl of sterile distilled water are added, and the mixture is made up to stock solutions of 4 mg/ml with a 5% glucose solution. For comparative study of the effects of AmB, 4 mg of FUNGIZONE are diluted with 1 ml of 5% glucose.
(§12) The cells are prepared by placing 1 ml of a peripheral blood sample into a tube together with Ficollhypaque to remove the lymphocytes, and then centrifuging the mixture at 2000 rpm for 20 minutes. The remaining red corpuscles are recovered, washed once with 0.9% NaCl and then twice with 150 Mm KCl, 0.5 Mm tris-HCl, pH 7.4.
(§13) A 1.25% suspension is then prepared with 150 mM KCl solution, 0.5 mM tris-HCl, pH 7.4, and 150 μl thereof are distributed in wells along with 50 μl of each of the dilutions of the derivatives, plus a control well (5% glucose solution).
(§14) The cells are then incubated at 37° C. in a steam cabinet for 1 hour 30.
(§15) To evaluate the cell lysis, haemoglobin is essayed by removing 100 μl of the supernatant in each well and diluting the sample with 1 ml of distilled water.
(§16) The haemoglobin concentration is calculated by measuring the optical density at 540 nm and taking into account the absorption of the derivatives of amphotericine B.
(§17) LD 50 is the dose which leads to lysis in 50% of the erythrocytes (a control of 100% lysis is obtained with distilled water, and reference lysis of 0% is obtained with the 5% glucose solution).

[3] = Toxicity on nucleated cells, mice T lymph gland cells; assay type: cell-based; settings: mouse, 1 hour 30, trypan blue, read-out: LD 50 (concentration leading to a mortality of 50%)
Experimental: (§18) B.2: Study of the toxicity on nucleated cells
(§19) The solutions of the amphotericine B derivatives are prepared similarly to those mentioned in paragraph B.1.
(§20) The cells are prepared by placing 20 ml of blood diluted to 1/2 with 0.9% NaCl into a tube together with 10 ml of Ficoll-hypaque, and the mixture is centrifuged at 2000 rpm for 30 minutes. The cell nuclei are recovered and washed twice with PBS buffer containing 5% of foetal calf serum.
(§21) The cells are prepared by suspending 1.14×10^6 cells/ml in RPMI 1640 containing 2.5% of foetal calf serum and by filling each well with 150 μl. 50 μl of each dilution of the derivatives are added and also one control (5% glucose solution).
(§22) The cells are then incubated in a steam cabinet at a CO2 concentration of 5% for 1 hour 30 at 37° C. or at ambient temperature.
(§23) To evaluate the toxicity of the derivatives, a cell count in the presence of trypan blue is made, and the LD 50 (concentration of the derivative leading to a mortality of 50%) is calculated with respect to the control (5% glucose solution) for each concentration of each derivative.

[4] = Toxicity on nucleated cells, mice B lymph gland cells; assay type: cell-based; settings: mouse, 1 hour 30, trypan blue, read-out: LD 50 (concentration leading to a mortality of 50%)
Experimental: as §18, §19, §20, §21, §22, §23

[5] = Toxicity on nucleated cells, mice thymocytes; assay type: cell-based; settings: mouse, thymocytes, 1 hour 30, trypan blue, read-out: LD 50 (concentration leading to a mortality of 50%)
X 63 (mice lymphoma B) = test: Toxicity on nucleated cells, X 63 mice lymphoma B; assay type: cell-based; settings: 1 hour 30, trypan blue, 90 min, read-out: LD 50 (concentration leading to a mortality of 50%)
PBL = test: Toxicity on nucleated cells, human PBL; assay type: cell-based; settings: human PBL, 1 hour 30, trypan blue; 90 min; read-out: LD 50 (concentration leading to a mortality of 50%)
Experimental: as §18, §19, §20, §21, §22, §23

red corpuscles [6] = test: Toxicity on red corpuscles (lysis), human; assay type: cell-based; settings: 37° C., 1 hour 30, 90 min, 90 min, read-out: LD 50 (dose which leads to lysis in 50% of the erythrocytes)
Experimental: as §10, §11, §12, §13, §14, §15, §16, §17

[7] = Toxicity on nucleated cells, human bone marrow; assay type: cell-based; settings: 1 hour 30, trypan blue, read-out: LD 50 (concentration leading to a mortality of 50%)
Experimental: as §18, §19, §20, §21, §22, §23

[8] = Toxicity on nucleated cells, human thymocytes; assay type: cell-based; settings: 1 hour 30, trypan blue, read-out: LD 50 (concentration leading to a mortality of 50%)
Experimental: as §18, §19, §20, §21, §22, §23

DAUDI (human lymphoma B) = test: Toxicity on nucleated cells, DAUDI human lymphoma B; assay type: cell-based; settings: 1 hour 30, trypan blue, 90 min, read-out: LD 50 (concentration leading to a mortality of 50%)
Candida albicans B 2630 = test: Growth inhibition in liquid medium (Sabouraud broth); assay type: cell-based; settings: B2630, Sabouraud broth, 28° C., 18 hours, read-out: IC 50 (growth-inhibiting concentration of 50%)
Experimental: as §1, §2, §3, §4, §5

[9] = Toxicity on nucleated cells, DAUDI human lymphoma B; assay type: cell-based; settings: human, daudi lymphoma b cells, 1 hour 30, trypan blue, read-out: LD 50 (concentration leading to a mortality of 50%)
[10] = Toxicity on nucleated cells, X 63 mice lymphoma B; assay type: cell-based; settings: mouse, x 63 lymphoma cells, 1 hour 30, trypan blue, read-out: LD 50 (concentration leading to a mortality of 50%)

Structure (SMILES)	solubility [1] [mg/mL]	IC50 (Candida albicans; Candida albicans, 18 h) [nM]	IC50 (Pytirosporum orbiculare) [nM]	IC50 (Saccharomyces cerevisiae) [nM]	concentration giving a growth inhibition of 1 cm around a disc in solid medium (Aspergillus flavus)	concentration giving a growth inhibition of 1 cm around a disc in solid medium (Aspergillus fumigatus)	HC50 (red corpuscles [2]) [µM]	CC50 at 1.5 h [3] [µM]	CC50 at 1.5 h [4] [µM]	CC50 at 1.5 h [5] [µM]	CC50 (X 63 (mice lymphoma B)) [mM]	CC50 (PBL) [µM]	HC50 (red corpuscles [6]) [µM]	CC50 at 1.5 h [7] [mM]	CC50 at 1.5 h [8] [µM]	CC50 (DAUDI (human lymphoma B)) [mM]	IC50 (Cryptoccocus neoformans; 18 h) [nM]	further results
C[C@@H]1[C@H](O)[C@@H](C)/C=C/C=C/C=C/C=C/C=C/C=C/C=C/[C@H](O[C@@H]2O[C@H](C)[C@@H](O)[C@H](NCC3(O)O[C@H](C(N)=O)[C@@H](O)[C@@H]3O)[C@@H]2O)C[C@@H]2O[C@](O)(C[C@@H](O)C[C@@H](O)[C@H](O)CC[C@@H](O)C[C@@H](O)CC(=O)O[C@H]1C)C[C@H](O)[C@H]2C(=O)O (stereo partly drawn) [AmB 12, 1-amino-1-deoxy-D-arabinoglucuronamidyl-AmB]	150 (≈ 136 mM)	–	–	–	–	–	–	–	–	–	–	–	–	–	–	–	–	–
C[C@@H]1[C@H](O)[C@@H](C)/C=C/C=C/C=C/C=C/C=C/C=C/C=C/[C@H](O[C@@H]2O[C@H](C)[C@@H](O)[C@H](NCC3(O)O[C@H](C(=O)O)[C@@H](O)[C@@H]3O)[C@@H]2O)C[C@@H]2O[C@](O)(C[C@@H](O)C[C@@H](O)[C@H](O)CC[C@@H](O)C[C@@H](O)CC(=O)O[C@H]1C)C[C@H](O)[C@H]2C(=O)O (stereo partly drawn) [AmB 17 F, 1-amino-1-deoxy-D-arabinoglucuronyl-AmB]	–	130	90	1400	2 × 10^-4 molarity	2 × 10^-4 molarity	30	20	150	8	> 1	> 1000	200	> 1	> 300	> 1	–	IC50 (Cryptoccocus neoformans): 150 nM
C[C@@H]1[C@H](O)[C@@H](C)/C=C/C=C/C=C/C=C/C=C/C=C/C=C/[C@H](O[C@@H]2O[C@H](C)[C@@H](O)[C@H](NCC3(O)O[C@H](C(=O)O)[C@@H](O)[C@@H]3O)[C@@H]2O)C[C@@H]2O[C@](O)(C[C@@H](O)C[C@@H](O)[C@H](O)CC[C@@H](O)C[C@@H](O)CC(=O)O[C@H]1C)C[C@H](O)[C@H]2C(=O)O (stereo partly drawn) [AmB 17, 1-amino-1-deoxy-D-arabinoglucuronyl-AmB]	20 (≈ 18.2 mM)	–	–	–	–	–	–	–	–	–	–	–	–	–	–	–	–	–
C[C@@H]1[C@H](O)[C@@H](C)/C=C/C=C/C=C/C=C/C=C/C=C/C=C/[C@H](O[C@@H]2O[C@H](C)[C@@H](O)[C@H](NCC(=O)[C@@H](O)[C@@H]3OC(c4ccccc4)OC[C@H]3O)[C@@H]2O)C[C@@H]2O[C@](O)(C[C@@H](O)C[C@@H](O)[C@H](O)CC[C@@H](O)C[C@@H](O)CC(=O)O[C@H]1C)C[C@H](O)[C@H]2C(=O)O (stereo partly drawn) [AmB 20 F, 1-deoxy-1-amino-4,6-O-benzylidene-D-fructosyl-AmB]	–	85	100	1100	1.5 × 10^-4 molarity	–	120	100	100	8	> 1	> 1000	200	1	> 300	–	45	IC50 (Candida albicans B 2630): 150 nM; IC (1 cm inhibition zone) (Aspergillus fumigatus; Aspergillus fumigatus, read-out: concentration giving a growth inhibition of 1 cm around a disc in solid medium): 200 µM; CC50 at 1.5 h [9]: > 1 mM
C[C@@H]1[C@H](O)[C@@H](C)/C=C/C=C/C=C/C=C/C=C/C=C/C=C/[C@H](O[C@@H]2O[C@H](C)[C@@H](O)[C@H](NCC(=O)[C@@H](O)[C@@H]3OC(c4ccccc4)OC[C@H]3O)[C@@H]2O)C[C@@H]2O[C@](O)(C[C@@H](O)C[C@@H](O)[C@H](O)CC[C@@H](O)C[C@@H](O)CC(=O)O[C@H]1C)C[C@H](O)[C@H]2C(=O)O (stereo partly drawn) [AmB 20, 1-deoxy-1-amino-4,6-O-benzylidene-D-fructosyl-AmB]	40 (≈ 34.1 mM)	–	–	–	–	–	–	–	–	–	–	–	–	–	–	–	–	–
CC(=O)NC[C@H]1OC(O)(CN[C@@H]2[C@H](O)[C@H](O[C@H]3/C=C/C=C/C=C/C=C/C=C/C=C/C=C/[C@H](C)[C@@H](O)[C@@H](C)[C@H](C)OC(=O)C[C@H](O)C[C@H](O)CC[C@@H](O)[C@H](O)C[C@H](O)C[C@]4(O)C[C@H](O)[C@@H](C(=O)O)[C@H](C3)O4)O[C@H](C)[C@H]2O)[C@@H](O)[C@@H]1O (stereo partly drawn) [AmB 23 F, 6-deoxy-6-N-acetyl-1-deoxy-1-aminofructosyl-AmB]	–	–	76	1600	–	2 × 10^-4 molarity	12	–	–	3	–	80	50	–	–	> 1	150	IC50 (Candida albicans): 400 nM; IC (1 cm inhibition zone) (Aspergillus flavus; Aspergillus flavus, read-out: concentration giving a growth inhibition of 1 cm around a disc in solid medium): 600 µM; CC50 at 1.5 h [10]: > 1 mM
